Measured values: the supplement of paper PMC13380429

How the values were obtained:
Conditions in all cases: 72 h
[1] = test system: Caco-2; experiment: relative viability EC50 (midpoint between 100% and the lowest measured viability); higher = less toxic
[2] = test system: Calu-3; experiment: as above
[3] = test system: U2OS; experiment: as above
[4] = test system: Vero E6; experiment: as above
[5] = test system: Caco-2; experiment: drug sensitivity score (DSS) for viability; higher = more toxic; extreme values may be limits of the assay
[6] = test system: HepG2; experiment: as above
[7] = test system: Calu-3; experiment: as above
[8] = test system: U2OS; experiment: as above
[9] = test system: Vero E6; experiment: as above
[10] = test system: Caco-2; experiment: cell viability relative to DMSO; higher = less toxic
[11] = test system: HepG2; experiment: as above
[12] = test system: Calu-3; experiment: as above
[13] = test system: U2OS; experiment: as above
[14] = test system: Vero E6; experiment: as above
[15] = test system: HepG2; experiment: relative viability EC50 (midpoint between 100% and the lowest measured viability); higher = less toxic

SMILES	relative viability EC50 [1] [µM]	relative viability EC50 [2] [µM]	relative viability EC50 [3] [µM]	relative viability EC50 [4] [µM]	drug sensitivity score [5]	drug sensitivity score [6]	drug sensitivity score [7]	drug sensitivity score [8]	drug sensitivity score [9]	cell viability ([10]; 1 nM) [%]	cell viability ([10]; 10 nM) [%]	cell viability ([10]; 100 nM) [%]	cell viability ([10]; 1000 nM) [%]	cell viability ([10]; 10000 nM) [%]	cell viability ([11]; 1 nM) [%]	cell viability ([11]; 10 nM) [%]	cell viability ([11]; 100 nM) [%]	cell viability ([11]; 1000 nM) [%]	cell viability ([11]; 10000 nM) [%]	cell viability ([12]; 1 nM) [%]	cell viability ([12]; 10 nM) [%]	cell viability ([12]; 100 nM) [%]	cell viability ([12]; 1000 nM) [%]	cell viability ([12]; 10000 nM) [%]	cell viability ([13]; 1 nM) [%]	cell viability ([13]; 10 nM) [%]	cell viability ([13]; 100 nM) [%]	cell viability ([13]; 1000 nM) [%]	cell viability ([13]; 10000 nM) [%]	cell viability ([14]; 1 nM) [%]	cell viability ([14]; 10 nM) [%]	cell viability ([14]; 100 nM) [%]	cell viability ([14]; 1000 nM) [%]	cell viability ([14]; 10000 nM) [%]	relative viability EC50 [15] [µM]
O=C(NC1CCN(Cc2ccccc2)CC1)c1ccc(I)cc1 [4-IBP]	> 10	> 10	> 10	> 10	0	1.2	0	0	0	104	101	99.4	103	88.8	94.5	108	104	105	68	104	104	104	95.9	102	102	99.9	101	97.6	98.8	109	106	107	101	93.2	–
Cc1c(O)c(=O)n(-c2ccccc2)n1C [4-hydroxy-phenazone]	> 10	> 10	–	> 10	0	0	0	–	0	98.7	98.7	90.2	92.3	90.6	102	103	110	96.6	115	107	105	101	96.8	102	–	–	–	–	–	98	98.3	103	103	92.9	> 10
Cc1c(Cl)cccc1S(=O)(=O)Nc1nc(CC(=O)N2CCN(C)CC2)cs1 [BVT-2733]	> 10	> 10	–	> 10	0	0	0	–	0	106	92.6	100	106	98.3	104	101	92.7	104	97.4	108	102	92.5	102	106	–	–	–	–	–	103	101	107	102	94.6	> 10
O=c1[nH]nc2c3c(cccc13)N=C(CN1Cc3ccccc3C1)N2 [E7449]	> 10	> 10	> 10	> 10	0	2.7	0.1	0.3	0.6	127	104	102	99	89.1	95	103	98.6	95.9	59.8	109	99.1	98.6	97.6	88.6	105	106	106	94.7	87.3	102	100	96.3	96.3	83.7	–
CCn1cc(-c2cccc(C(F)(F)F)c2)c2sc(C(=N)NC3CCS(=O)(=O)CC3)cc2c1=O [I-BRD9]	> 10	> 10	> 10	> 10	0	2.1	1.2	0	0	111	102	97	97.8	93.5	94.4	99.2	98.6	97.5	63.4	112	99.5	106	95.4	79.5	103	102	99.1	99.5	92	95.1	95.8	98.7	98.1	92.3	–
CCC1(c2ccccc2)C(=O)N(COC)C(=O)N(COC)C1=O [eterobarb]	> 10	> 10	–	> 10	0	0	0	–	0	102	90.8	95.3	105	111	105	114	97.4	100	88.4	111	88.2	110	88.5	105	–	–	–	–	–	112	110	102	106	86.8	> 10
N=C(N)SCCc1c[nH]cn1 [imetit]	> 10	> 10	–	> 10	0	0	0.1	–	0	97.2	99.1	97	100	93.5	112	111	95.9	95.2	112	97.8	109	97	93.7	87.8	–	–	–	–	–	103	103	103	97.1	101	> 10
COc1cc([S+](C)[O-])ccc1-c1nc2cccnc2[nH]1 (stereo unspecified) [sulmazole]	> 10	> 10	–	> 10	0	0	0	–	0	115	98.5	98.8	99.5	112	106	103	95.5	102	100	108	90.3	90.7	93.8	104	–	–	–	–	–	98	102	98.5	97.8	101	> 10
C=C[C@]1(C)C[C@@H](OC(=O)CSC(C)(C)CNC(=O)[C@H](N)C(C)C)[C@]2(C)[C@H](C)CC[C@]3(CCC(=O)[C@H]32)[C@@H](C)[C@@H]1O [valnemulin]	> 10	> 10	> 10	> 10	0.7	3	0	1.1	0.2	99.4	93.3	91.8	94.5	80.9	98.6	104	93.7	88.1	63	94.3	98.6	102	101	98.9	97.4	99.4	97.7	96.3	79.5	97.1	98.7	103	95.1	88.3	–
